Data on nine compounds can be found in patent US5093339A, “Pyrano[f]quinoline derivatives and pharmaceutical compositions containing the same” (Kodama Kabushiki Kaisha, priority 1988, dated 1992).

For one series, the system named is blood pressure. Put plainly: Blood pressure-reducing action (Test Example 2). Format: in vivo, dog. To be noted: dogs, i.v., dissolved in dimethylsulfoxide; for ED20: Canis lupus familiaris, iv, read-out: ED20, dose effective to reduce the blood pressure by 20%. As for the experimental part: In order to evaluate the blood pressure-reducing action of the present compounds, each of the compounds was dissolved in dimethylsulfoxide and administered intravenously to dogs. After administration, a dose of the compound effective to reduce the blood pressure by 20% (ED20 :mg/Kg) was measured.

Series [1] concerns platelet plasma (platelet-rich plasma of rabbit). Put plainly: Platelet aggregation inhibitory action (Test Example 1), rabbit platelet plasma, aggregation by ADP, PAF, AA or collagen. Format: cell-based. The method, then: For evaluating the platelet aggregation inhibitory action of the present compounds, platelet plasma containing 5×10^5 of platelets in 1 μl of plasma was prepared by appropriately mixing platelet-rich plasma (PRP) of rabbit with platelet-poor plasma (PPP). By using the platelet plasma, the present compounds were measured on 50% inhibitory efficacy (IC 50) against each of platelet aggregation accelerators, 10 μM of adenosine diphosphate (ADP), 0.01 μg/ml of platelet activation factor (PAF), 300 μM of arachidonic acid (AA) and 30 μg/ml of collagen.

For another series, the system named is carotid blood-flow. Kind of series: Blood-flow increasing action (Test Example 3), carotid. Format: in vivo, dog. The note with it: Canis lupus familiaris, iv; dogs, i.v., dissolved in dimethylsulfoxide; read-out: Carotid blood-flow increasing action (ED30), dose required to increase the blood-flow in the carotid by 30%. The method, then:
In order to evaluate the blood-flow increasing action of the present compounds, each of the compounds was dissolved in dimethylsulfoxide and administered intravenously to dogs. After administration, a dose required to increase the blood-flow in the carotid by 30% was determined.

A short description of series [2]: Acute toxicity test (Test Example 4). To be noted: in vivo; oral administration to mouse, suspended in carboxymethyl cellulose; read-out: LD50, 50% lethal dose. The method, then:
Each of the present compounds suspended in a carboxymethyl cellulose was administered orally to a mouse and a 50% lethal dose (LD50) was measured. There was not observed any dead mouse even with the administration as high as 2,000 mg/Kg.

Where [3] appears, read: Oryctolagus cuniculus, 0.01 μg/ml platelet activation factor (PAF), read-out: 50% inhibitory efficacy (IC 50), PAF, Coagulant (ID50).
Setting [4] is: Oryctolagus cuniculus, 10 μM adenosine diphosphate (ADP), read-out: 50% inhibitory efficacy (IC 50), ADP, Coagulant (ID50).
The mark [5] stands for this setting: Oryctolagus cuniculus, 30 μg/ml collagen, read-out: 50% inhibitory efficacy (IC 50), Collagen, Coagulant (ID50).
[6] abbreviates: Oryctolagus cuniculus, 300 μM arachidonic acid (AA), read-out: 50% inhibitory efficacy (IC 50), AA, Coagulant (ID50).

Where two headings read alike, the source gives them in different places. Bounds are passed on as bounds.

On to “3,3-dimethyl-1-hydroxy-3H-pyrano [3,2-f]quinoline-8(7H)-one [Preparation Example 9]”, for which, in the series with blood pressure, the “ED20, dose effective to reduce the blood pressure by 20%” value is 1.5 mg/kg. Also, the IC50 in series [1] (0.01 μg/ml platelet activation factor (PAF), read-out: 50% inhibitory efficacy (IC 50), PAF, Coagulant (ID50)) is 45 µM; in series [1] (10 μM adenosine diphosphate (ADP), read-out: 50% inhibitory efficacy (IC 50), ADP, Coagulant (ID50)), 30 µM; in series [1] (30 μg/ml collagen, read-out: 50% inhibitory efficacy (IC 50), Collagen, Coagulant (ID50)), 30 µM; in series [1] (300 μM arachidonic acid (AA), read-out: 50% inhibitory efficacy (IC 50), AA, Coagulant (ID50)), 21 µM.
For `CC1CCc2c(ccc3[nH]c(=O)ccc23)O1` (stereo not shown) [Preparation Example 1, 3-methyl-1,2-dihydro-3H-pyrano[3,2-f]quinoline-8(7H)-one], the ED20 with blood pressure stood at 1.2 mg/kg. Besides, the IC50 was 8 µM in series [1] (setting [3]), 5 µM in series [1] (setting [4]), 5 µM in series [1] (setting [5]) and 3 µM in series [1] (setting [6]).
As to `O=c1ccc2c3c(ccc2[nH]1)OCC=C3` [Preparation Example 4, 3,3-dihydro-3H-pyrano[3,2-f]quinoline-8(7H)-one], the ED30 with carotid blood-flow turned out to be 0.066 mg/kg. For the same compound, the ED20 with blood pressure was 0.5 mg/kg. Besides, the IC50 is 25 µM in series [1] (setting [3]), 30 µM in series [1] (setting [4]), 20 µM in series [1] (setting [5]) and 18 µM in series [1] (setting [6]).
As for `CC1(C)CCc2c(ccc3[nH]c(=O)ccc23)O1` [Preparation Example 2, 3,3-dimethyl-1,2-dihydro-3H-pyrano[3,2-f]quinoline-8(7H)-one], in the series with carotid blood-flow, the ED30 was 0.009 mg/kg. Also, the ED20 in the series with blood pressure was found to be 1.2 mg/kg. For the same compound, the IC50 came to 6 µM in series [1] (setting [3]), 5 µM in series [1] (setting [4]), 7 µM in series [1] (setting [5]) and 5 µM in series [1] (setting [6]).
In general, LD50 refers to the dose at which mortality reaches 50%. For the compound `O=c1ccc2c3c(ccc2[nH]1)OCCC3` [Preparation Example 5, 1,2,3,3-tetrahydro-3H-pyrano-[3,2-f]quinoline-8(7H)-one], in the series on carotid blood-flow, the ED30 turned out to be 0.0094 mg/kg. Further, in series [2], the LD50 was ≥ 2000 mg/kg. In addition, the ED20 in the series with blood pressure turned out to be 1.6 mg/kg. Besides, the IC50 in series [1] (setting [3]) is 8 µM; in series [1] (setting [4]) it was 3 µM; in series [1] (setting [5]), 6 µM; in series [1] (setting [6]) it was 4 µM.
For `CC1(C)CCc2c(ccc3c2CCC(=O)N3)O1` [Preparation Example 3, 3,3-dimethyl-1,2,9,10-tetrahydro-3H-pyrano [3,2-f]quinoline-8(7H)-one], the ED30 in the series on carotid blood-flow is 0.03 mg/kg. Further, in the series on blood pressure, the ED20 came out at 0.4 mg/kg. In addition, the IC50 in series [1] (setting [3]) worked out at 22 µM; in series [1] (setting [4]), 20 µM; in series [1] (setting [5]), 21 µM; in series [1] (setting [6]), 16 µM.
Turning to `O=c1ccc2c3c(ccc2[nH]1)OCCC3O` (stereo not shown) [Preparation Example 8, 1-hydroxy-1,2,3,3-tetrahydro-3H-pyrano[3,2-f]quinoline-8(7H)-one], the ED20 in the series with blood pressure turned out to be 1.8 mg/kg. For the same compound, the IC50 in series [1] (setting [3]) was found to be 25 µM; in series [1] (setting [4]), 20 µM; in series [1] (setting [5]) it was 18 µM; in series [1] (setting [6]) it was 18 µM.
As to `CC1(C)Oc2ccc3[nH]c(=O)ccc3c2CC1O` (stereo not shown) [Preparation Example 7, 3,3-dimethyl-1,2-hydroxy-1,2-dihydro-3 H-pyrano[3,2-f]quinoline-8(7H)-one], the ED20 with blood pressure came to 1.6 mg/kg. Further, the IC50 in series [1] (setting [3]) turned out to be 21 µM; in series [1] (setting [4]) it was 20 µM; in series [1] (setting [5]), 13 µM; in series [1] (setting [6]), 13 µM.
Turning to `O=c1ccc2c3c(ccc2[nH]1)OCC(O)C3` (stereo not shown) [Preparation Example 6, 2-hydroxy-1,2,3,3-tetrahydro-3H-pyrano [3,2-f]quinoline-8(7H)-one], the ED30 in the series on carotid blood-flow was 0.19 mg/kg. The LD50 in series [2] was ≥ 2000 mg/kg. In addition, the ED20 with blood pressure worked out at 1.5 mg/kg. Besides, the IC50 in series [1] (setting [3]) came out at 47 µM; in series [1] (setting [4]), 30 µM; in series [1] (setting [5]), 25 µM; in series [1] (setting [6]) it was 21 µM.
